Among the data in ChEMBL document CHEMBL3046751, “Effects of Pyridalyl on ATP Concentrations in Cultured Sf9 Cells” (J Pestic Sci, 2005) are Activity values, retold here.

What all share (assay type): functional, cell-based
The test system of assay [1] is Sf9. In words: Reduction of ATP level in Spodoptera frugiperda (fall armyworm) Sf9 cells at 0.1 to 1 uM after 6 to 24 hr by luminescent cell viability assay.
Assay [2] has as its system Sf9. In words: Increase of ATP level in Spodoptera frugiperda (fall armyworm) Sf9 cells at 10 uM after 6 to 24 hr by luminescent cell viability assay.
The subject of assay [3] is Sf9. In words: Reduction of ATP level in Spodoptera frugiperda (fall armyworm) Sf9 cells after 20 to 24 hr by luminescent cell viability assay.
For assay [4], the system named is Sf9. In words: Reduction of ATP level in Spodoptera frugiperda (fall armyworm) Sf9 cells at 1 to 10 uM after 4 hr by luminescent cell viability assay.
The subject of assay [5] is Sf9. In words: Reduction of ATP level in Spodoptera frugiperda (fall armyworm) Sf9 cells at 0.1 to 10 uM after 4 hr by luminescent cell viability assay.
For assay [6], the system named is Sf9. In words: Reduction of ATP level in Spodoptera frugiperda (fall armyworm) Sf9 cells at 0.01 to 10 uM after 4 hr by luminescent cell viability assay.
In assay [7] the test system is Sf9. In words: Reduction of ATP level in Spodoptera frugiperda (fall armyworm) Sf9 cells at 0.1 uM after 24 hr by luminescent cell viability assay.
In assay [8] the test system is Sf9. In words: Cytotoxicity against Spodoptera frugiperda (fall armyworm) Sf9 cells at 0.01 uM.
Assay [9] has as its system Sf9. In words: Reduction of ATP level in Spodoptera frugiperda (fall armyworm) Sf9 cells at 1 to 10 uM after 20 to 24 hr by luminescent cell viability assay.
For assay [10], the system named is Sf9. In words: Reduction of ATP level in Spodoptera frugiperda (fall armyworm) Sf9 cells at 1 uM after 8 hr by luminescent cell viability assay.
In assay [11] the test system is Sf9. In words: Reduction of ATP level in Spodoptera frugiperda (fall armyworm) Sf9 cells at 10 uM after 2 hr by luminescent cell viability assay.
The subject of assay [12] is Sf9. In words: Reduction of ATP level in Spodoptera frugiperda (fall armyworm) Sf9 cells at 0.01 uM after 24 hr by luminescent cell viability assay.
The test system of assay [13] is Sf9. In words: Reduction of ATP level in Spodoptera frugiperda (fall armyworm) Sf9 cells at 10 uM after 4 hr by luminescent cell viability assay.
For assay [14], the system named is Sf9. In words: Reduction of ATP level in Spodoptera frugiperda (fall armyworm) Sf9 cells at 10 uM after 6 to 24 hr by luminescent cell viability assay.

Active and inactive are the calls of the source. The calls are words filed in the database; no cut-off is given here.

Turning to `COc1ccc(C[C@H]2NC[C@H](O)[C@H]2OC(C)=O)cc1`, in the assay with Sf9 [1], the result was inactive. Further, the result in the assay on Sf9 [2] was Active.

As to `CCOCn1c(-c2ccc(Cl)cc2)c(C#N)c(Br)c1C(F)(F)F`, the Activity result in the assay on Sf9 [3] is “Dose-dependent effect”. Moreover, the result in the assay on Sf9 [4] was Active.

For `N#CC(C#N)=NNc1ccccc1Cl`, the Activity entry in the assay on Sf9 [3] was “Dose-dependent effect”. Also, the result with Sf9 [5] was Active.

Consider `Cc1nn(C)c(Oc2ccccc2)c1/C=N/OCc1ccc(C(=O)OC(C)(C)C)cc1`, for which, in the assay on Sf9 [6], the outcome was inactive.

On to `FC(F)(F)c1ccc(OCCCOc2c(Cl)cc(OCC=C(Cl)Cl)cc2Cl)nc1`, for which the outcome in the assay with Sf9 [7], in the assay on Sf9 [9], with Sf9 [10] and in the assay on Sf9 [11] was Active. The Activity entry with Sf9 [3] was “Dose-dependent effect”. Moreover, the outcome in the assay on Sf9 [8] and with Sf9 [12] was inactive.

Regarding `C=C(C)[C@H]1Cc2c(ccc3c2O[C@@H]2COc4cc(OC)c(OC)cc4[C@@H]2C3=O)O1`, in the assay on Sf9 [5], the result was inactive.

As to `CCCCCCCCCCCCC1=C(OC(C)=O)C(=O)c2ccccc2C1=O`, the Activity entry with Sf9 [3] is “Dose-dependent effect”. Further, in the assay on Sf9 [13], the outcome was Active.

With `O=c1[nH]cc(F)c(=O)[nH]1`, the outcome in the assay on Sf9 [14] was inactive.
